Assay results reported in patent publication EP0244595A2, “Dihydropyridine derivatives, process for their preparation and their use as pharmaceutical compounds” (Byk Gulden Lomberg Chemische Fabrik GmbH, priority 1986, dated 1987).
Counter-ions that a name gives are not always drawn. Like-named read-outs stand apart in the source and are kept apart here.

System: genetisch hypertonen Ratten
Test: Antihypertensive effect (systolic blood pressure, tail cuff) in spontaneously hypertensive rats after oral dosing
Type: in vivo, Ratte
Details: Rattus norvegicus; for change in vivo at 10 µmol/kg: 10 µmol/kg p.o. once daily on four consecutive days; for change in vivo at 25 µmol/kg: 25 µmol/kg p.o. once daily on four consecutive days; for change in vivo at 5 µmol/kg: 5 µmol/kg p.o. once daily on four consecutive days
Source text: Die antihypertensive Wirksamkeit der erfindungsgemäßen Verbindungen kann am Modell der spontan hypertonen Ratte nachgewiesen werden.
Zur Bestimmung der antihypertensiven Wirkung werden die unten aufgeführten Verbindungen in den angegebenen Dosen an vier aufeinander folgenden Tagen an je 6 männlichen Ratten (Stamm SHR/N/Ibm/Bm, 250-350 g) mit genetisch bedingtem Hochdruck (systolischer Blutdruck > 180 mmHg) täglich einmal mittels Schlundsonde verabfolgt. Die Messung des Blutdrucks erfolgt jeweils 6 und gegebenenfalls 2 oder 24 Studnen nach Substanzgabe.
Die Blutdruckmessung wird in einer Wärmekammer bei 36°C vorgenommen, um eine bessere Durchblutung der Schwanzarterie zu erreichen. Hierzu werden die Tiere in perforierte Lochblechkäfige verbracht und 20 - 40 Min. nach Beginn der Aufwärmung gemessen. Zur Messung des systolischen arteriellen Drucks wird eine ringförmige Manschette mit aufblasbarer Gummimembran zur Unterbindung der Durchblutung und ein ringförmiger Piezokristallaufnehmer zur Erfassung der Pulswellen auf den Schwanz aufgeschoben. Nach erfolgter Unterbindung des Blutstroms in der Schwanzarterie wird der Manschettendruck kontinuierlich reduziert. Die Wiederkehr der Pulswellen bei Druckablassen wird automatisch als systolischer Blutdruck erkannt und ausgedruckt (Bühler, R. er al." Microprocessor-based automation of blood pressure measurement in the conscious rat. Proceedings of the 4th international symposium on rats with spontaneous hypertension and related studies, Rascher, R. et al. (Eds.), Schattauer Verlag, Stuttgart, New York, 1982, S. 410-413). Pulssignale und Druckverlauf werden zur Auswertung graphisch aufgezeichnet.
Zur Gewöhnung an den Meßvorgang werden die Tiere vor Substanzprüfung 14 Tage trainiert. In der zweiten Trainingswoche werden Blutdruck-Vorwerte erhoben. Tiergruppen, die Substanz erhalten, werden gegen eine Kontrollgruppe geprüft.
In der anschließenden Tabelle werden die untersuchten Verbindungen durch laufende Nummern gekennzeichnet, die mit den jewiligen Beispielnummern übereinstimmen.
Tabelle I gibt für die Vertreter der erfindungsgemäßen Verbindungen die prozentuale Senkung des Blutdrucks (BP) nach oraler Verabreichung bei der Ratte wieder.

[1] = 2h after dosing, mean of days 1+4, male SHR/N/Ibm/Bm rats, N=6, read-out: BP (% Änderung vs. Kontrolle), Mittelwert für Meßzeitpunkte: Stunden nach Gabe (Tage) 2h (1.+4.Tag)
[2] = 6h after dosing, mean of days 1-4, male SHR/N/Ibm/Bm rats, N=6, read-out: BP (% Änderung vs. Kontrolle), Mittelwert für Meßzeitpunkte: Stunden nach Gabe (Tage) 6h (1.-4.Tag)
[3] = 24h after dosing, mean of days 1+3, male SHR/N/Ibm/Bm rats, N=6, read-out: BP (% Änderung vs. Kontrolle), Mittelwert für Meßzeitpunkte: Stunden nach Gabe (Tage) 24h (1.+3.Tag)

Structure (SMILES) | change in vivo at 10 µmol/kg [1] [%] | change in vivo at 10 µmol/kg [2] [%] | change in vivo at 10 µmol/kg [3] [%] | change in vivo at 25 µmol/kg [1] [%] | change in vivo at 25 µmol/kg [2] [%] | change in vivo at 25 µmol/kg [3] [%] | further results
CC1=C(C(=O)OCCCN2CCN(c3ccc4c(c3)OCO4)CC2)C(c2cccc([N+](=O)[O-])c2)C(C(=O)O[C@@H]2C[C@H](C)CC[C@H]2C(C)C)=C(C)N1 (single isomer, unassigned) [Beispiel 16, 1,4-Dihydro-2,6-dimethyl-4-(3-nitrophenyl)-pyridin-3,5-dicarbonsäure-3-(-)-menthyl-5-{3-[4-(3,4-methylendioxyphenyl)-1-piperazinyt]-propyl}ester-fumarat] | -21 | -21 | -7 | – | – | – | –
CC1=C(C(=O)OCCCN2CCN(c3ccccc3C)CC2)C(c2cccc([N+](=O)[O-])c2)C(C(=O)O[C@@H]2C[C@H](C)CC[C@H]2C(C)C)=C(C)N1 (single isomer, unassigned) [Beispiel 17, 1,4-Dihydro-2,6-dimethyl-4-(3-nitrophenyl)-pyridin-3,5-dicarbonsäure-3-(-)-menthyl-5-{3-[4-(2-tolyl)-1-piperazinyl]-propyl}-ester-fumarat] | -17 | -14 | -3 | – | – | – | –
CC1=C(C(=O)OCCCN2CCN(c3ccc(C)cc3C)CC2)C(c2cccc([N+](=O)[O-])c2)C(C(=O)O[C@@H]2C[C@H](C)CC[C@H]2C(C)C)=C(C)N1 (single isomer, unassigned) [Beispiel 18, 1,4-Dihydro-2,6-dimethyl-4-(3-nitrophenyl)-pyridin-3,5-dicarbonsäure-3-(-)-menthyl-5-{3-[4-(2,4-dimethylphenyl)-1-piperazinyl]-propyl}-ester-fumarat] | -15 | -18 | -3 | – | – | – | –
COc1ccccc1N1CCN(CCCOC(=O)C2=C(C)NC(C)=C(C(=O)O[C@@H]3C[C@H](C)CC[C@H]3C(C)C)C2c2cccc(Cl)c2Cl)CC1 (single isomer, unassigned) [Beispiel 21, 4-(2,3-Dichlorphenyl)-1,4-dihydro-2,6-dimethyl-pyridin-3,5-dicarbonsäure-3-(-)-menthyl-5-{3-[4-(2-methoxyphenyl)-1-piperazinyl]-propyl}ester-fumarat] | – | – | – | -50 | -51 | -46 | –
CCOc1ccccc1N1CCN(CCCOC(=O)C2=C(C)NC(C)=C(C(=O)O[C@@H]3C[C@H](C)CC[C@H]3C(C)C)C2c2cccc(Cl)c2Cl)CC1 (single isomer, unassigned) [Beispiel 22, 4-(2,3-Dichlorphenyl)-1,4-dihydro-2,6-dimethyl-pyridin-3,5-dicarbonsäure-3-(-)-menthyl-5-{3-[4-(2-ethoxyphenyl)-1-piperazinyl]-propyl}ester-fumarat] | – | – | – | -46 | -55 | -43 | –
CC1=C(C(=O)OCCN2CCCCC2)C(c2cccc([N+](=O)[O-])c2)C(C(=O)O[C@@H]2C[C@H](C)CC[C@H]2C(C)C)=C(C)N1 (single isomer, unassigned) [Beispiel 23, 1,4-Dihydro-2,6-dimethyl-4-(3-nitrophenyl)-pyridin-3,5-dicarbonsäure-3-(-)-menthyl-5-[2-(1-piperidinyl)-ethyl]-ester-fumarat] | – | – | – | -17 | -26 | 4 | –
CC1=C(C(=O)OCCCN2CCC(c3ccccc3)(c3ccccc3)CC2)C(c2cccc([N+](=O)[O-])c2)C(C(=O)O[C@@H]2C[C@H](C)CC[C@H]2C(C)C)=C(C)N1 (stereo partly drawn) [Beispiel 1a, 1,4-Dihydro-2,6-dimethyl-4-(3-nitrophenyl)-pyridin-3,5-dicarbonsäure-3-(-)-menthyl-5-[3-(4,4-diphenylpiperidyl-1)-propyl]-ester-hydrochlorid] | – | – | – | -24 | -20 | -15 | –
CC1=C(C(=O)OCCCN2CCC(c3ccccc3)CC2)C(c2cccc([N+](=O)[O-])c2)C(C(=O)O[C@@H]2C[C@H](C)CC[C@H]2C(C)C)=C(C)N1 (stereo partly drawn) [Beispiel 2a, 1,4-Dihydro-2,6-dimethyl-4-(3-nitrophenyl)-pyridin-3,5-dicarbonsäure-3-(-)-menthyl-5-[3-(4-phenylpiperidyl-1)-propyl]-ester-hydrochlorid] | – | – | – | -25 | -24 | -16 | –
COc1ccccc1N1CCN(CCCOC(=O)C2=C(C)NC(C)=C(C(=O)O[C@@H]3C[C@H](C)CC[C@H]3C(C)C)C2c2cccc([N+](=O)[O-])c2)CC1 (stereo partly drawn) [Beispiel 3a, 1,4-Dihydro-2,6-dimethyl-4-(3-nitrophenyl)-pyridin-3,5-dicarbonsäure-3-(-)-menthyl-5-{3-[4-(2-methoxyphenyl)-1-piperazinyl]-propyl}-ester-fumarat] | – | – | – | -46 | -42 | -15 | –
CC1=C(C(=O)OCCN2CCN(c3ccccc3)CC2)C(c2cccc([N+](=O)[O-])c2)C(C(=O)O[C@@H]2C[C@H](C)CC[C@H]2C(C)C)=C(C)N1 (stereo partly drawn) [Beispiel 4a, 1,4-Dihydro-2,6-dimethyl-4-(3-nitrophenyl)-pyridin-3,5-dicarbonsäure-3-(-)-menthyl-5-[2-(4-phenyl-1-piperazinyl)-ethyl]ester-fumarat] | – | – | – | – | – | – | change in vivo at 5 µmol/kg [1]: -34%; change in vivo at 5 µmol/kg [2]: -23%; change in vivo at 5 µmol/kg [3]: -14%
CC1=C(C(=O)OCCN2CCN(c3ccccn3)CC2)C(c2cccc([N+](=O)[O-])c2)C(C(=O)O[C@@H]2C[C@H](C)CC[C@H]2C(C)C)=C(C)N1 (stereo partly drawn) [Beispiel 5a, 1,4-Dihydro-2,6-dimethyl-4-(3-nitropheny)-pyridin-3,5-dicarbonsäure-3-(-)-menthyl-5-{2-[4-(2-pyridyl)-1-piperazinyl]-ethyl}-ester-fumarat] | -29 | -11 | -3 | – | – | – | –
